Measured values: ChEMBL document CHEMBL4334515, “Lignans from Saururus chinensis with Inhibitory Effects on Nitric Oxide Production” (J Nat Prod, 2019)

Columns and labels:
RAW264.7 [1] = assay: Inhibition of LPS-induced NO production in mouse RAW264.7 cells incubated for 24 hrs in presence of LPS by Griess reagent based assay; type: functional, cell-based; details: RAW264.7, 24 h
RAW264.7 [2] = assay: Cytotoxicity against mouse RAW264.7 cells assessed as effect on cell viability at 10 uM by CCK-8 assay; type: cell-based; details: raw264.7, 10 µM

| Structure (SMILES) | IC50 (RAW264.7 [1]) | Activity (RAW264.7 [2]) |
| --- | --- | --- |
| C=CCc1cc(OC)c(O[C@H](C)[C@H](OC(C)=O)c2cc(OC)c(OC)c(OC)c2)c(OC)c1 | 10.4 µM | Non-Toxic |
| C/C=C/c1cc(OC)c(O[C@H](C)[C@H](OC(C)=O)c2cc(OC)c(OC)c(OC)c2)c(OC)c1 | 16.9 µM | Non-Toxic |
| COC/C=C/c1ccc(O[C@@H](C)C(=O)c2cc(OC)c(OC)c(OC)c2)c(OC)c1 | 8.6 µM | Non-Toxic |
| COC1=CC(=O)C2=C(C1=O)[C@@H](c1cc3c(cc1O)OCO3)[C@H](C)[C@@H](C)C2 | – | Toxic |
| COc1cc([C@@H]2OC(=O)O[C@H]2C)cc(OC)c1C | 40.1 µM | Non-Toxic |
| C/C=C/c1cc(OC)c(O[C@@H](C)C(=O)c2cc(OC)c(OC)c(OC)c2)c(OC)c1 | 14 µM | Non-Toxic |
| CC(C(=O)c1ccc2c(c1)OCO2)[C@H](C)Cc1ccc2c(c1)OCO2 (stereo not given in full) | > 50 µM | Non-Toxic |
| CC(Cc1ccc2c(c1)OCO2)[C@H](C)Cc1ccc2c(c1)OCO2 (stereo not given in full) | 16.5 µM | Non-Toxic |
| C=CCc1cc(OC)c(O[C@H](C)[C@H](O)c2cc(OC)c(OC)c(OC)c2)c(OC)c1 | 46.1 µM | Non-Toxic |
| C[C@H]1[C@@H]2c3cc4c(cc3O[C@]35OCOC3=CC(=O)[C@H](C[C@@H]1C)[C@H]25)OCO4 | 5.6 µM | Non-Toxic |
| C[C@H]1[C@@H]2c3cc4c(cc3O[C@]35OCOC3=CC(=O)[C@@H](C[C@@H]1C)[C@H]25)OCO4 | 9.2 µM | Non-Toxic |
| C[C@H]1[C@@H]2c3cc4c(cc3O[C@]35OCOC3=CC(=O)[C@@H](C[C@@H]1C)[C@@H]25)OCO4 | > 50 µM | Non-Toxic |
| C=CCc1cc(OC)c(O[C@@H](C)[C@@H](OC(C)=O)c2cc(OC)c3c(c2)OCO3)c(OC)c1 | 23.7 µM | Non-Toxic |
| C[C@H](Cc1cc2c(cc1O)OCO2)[C@H](C)Cc1cc2c(cc1O)OCO2 | 42.4 µM | Non-Toxic |
| C=CCc1cc(OC)c(OC)c(OC)c1 | > 50 µM | Non-Toxic |
| COC/C=C/c1cc(OC)c(O[C@@H](C)[C@@H](O)c2cc(OC)c3c(c2)OCO3)c(OC)c1 | 35.5 µM | Non-Toxic |
| C[C@H](Cc1ccc2c(c1)OCO2)[C@H](C)Cc1cc2c(cc1O)OCO2 (relative stereo) | 41.4 µM | Non-Toxic |
| C/C=C/c1ccc(O[C@@H](C)[C@@H](O)c2ccc(O)c(OC)c2)c(OC)c1 [MACHILIN D] | 21.1 µM | Non-Toxic |
| COc1cc(C[C@@H](C)[C@@H](C)Cc2ccc(O)c(OC)c2)ccc1O [MESODIHYDROGUAIARETIC ACID] | 20.3 µM | Non-Toxic |
| N=C(N)NN [PIMAGEDINE] | 25.5 µM | – |
| C[C@@H]([C@H](C)[C@H](O)c1ccc2c(c1)OCO2)[C@H](O)c1ccc2c(c1)OCO2 [SAUCERNEOL I] | > 50 µM | Non-Toxic |
